Laboratory results from patent US10138222B2, “Substituted benzamides as RIPK2 inhibitors” (Boehringer Ingelheim International GmbH, priority 2016, dated 2018).

Molecular target: RIPK2 (Homo sapiens (Human), UniProt O43353)
Experiment: RIPK2 inhibition, ADP-Glo Kinase Assay
Assay type: biochemical
Settings: 8His-RIPK2 FL enzyme 8 nM, ATP 5 μM, 15 minutes pre-incubation, 60 minutes at 37° C., luminescence
Protocol: RIPK2 inhibition for compounds in Table 1 are shown in Table 3 and measured using the following method:
Materials: White, 384-well optiplates (cat.no. 6007290) were purchased from PerkinElmer. The V9103X ADP-Glo Kinase Assay Custom (including ultra-pure ATP) was purchased from Promega. 8His-RIPK2 FL was prepared in-house. All other materials were of highest grade commercially available.
Method: In a 384-well plate, test compound diluted in assay buffer (1% DMSO final) is mixed with 8His-RIPK2 FL enzyme (final concentration of 8 nM). After 15 minutes of pre-incubation at RT, ATP dissolved in assay buffer is added (final concentration 5 μM). The mixture is incubated for 60 minutes at 37° C. in a humidified incubator. Then, ADP Glo Reagent is added, followed by a 40 minute incubation at rt. Finally, Kinase Detection Reagent is added and the entire mixture is incubated for 40 min at RT. The luminescence signal is measured with an Envision reader to determine the amount of ADP produced. Assay buffer: 25 mM HEPES (4-(2-hydroxyethyl)-1-piperazinethanesulfonic acid), 0.1% BSA (bovine serum albumin), 10 mM MgCl2, 5 mM MnCl2, 50 mM KCl, 0.01% CHAPS (3-[(3-cholamidopropyl)dimethylammonio]-1-propanesulfonate), 10 μM Na3VO4, 1 mM DTT (dithiothreitol), pH 7.5 All plates contain wells with vehicle controls instead of compound (1% DMSO) as reference for the high signal (100% CTL (100% of control), high signal), and wells without enzyme as reference for low signal (0% CTL, low signal). The luminescent signal generated is proportional to the ADP produced and is correlated with enzyme activity. The analysis of the data is performed by the calculation of the percentage of ADP production in the presence of the test compound and RIPK2 as compared to the ADP production in the presence of RIPK2 plus 50 μM Gefitinib. (RLU (relative luminescence units) (sample)−RLU(low control))*100/(RLU(high value)−RLU(low control)) [RLU=relative luminescence units].

Sequence of RIPK2 (O43353 whole entry): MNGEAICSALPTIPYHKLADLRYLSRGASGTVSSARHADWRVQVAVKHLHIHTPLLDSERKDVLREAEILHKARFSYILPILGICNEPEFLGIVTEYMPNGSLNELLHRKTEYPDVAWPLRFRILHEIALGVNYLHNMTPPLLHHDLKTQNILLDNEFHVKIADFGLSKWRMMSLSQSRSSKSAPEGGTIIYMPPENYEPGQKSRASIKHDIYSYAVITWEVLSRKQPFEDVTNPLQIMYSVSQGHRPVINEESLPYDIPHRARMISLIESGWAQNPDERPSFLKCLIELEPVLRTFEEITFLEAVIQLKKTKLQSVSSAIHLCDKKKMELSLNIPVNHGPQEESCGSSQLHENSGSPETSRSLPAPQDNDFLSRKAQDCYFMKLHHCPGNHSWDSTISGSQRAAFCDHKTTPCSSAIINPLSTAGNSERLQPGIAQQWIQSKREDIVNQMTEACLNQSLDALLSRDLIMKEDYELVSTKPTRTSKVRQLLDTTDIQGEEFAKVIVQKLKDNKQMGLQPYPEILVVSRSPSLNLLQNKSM

SMILES | IC50 [nM]
Cc1cc(F)c(C(=O)NC2CC2)cc1-c1cnn(-c2cncc(N[C@H]3CCN(C)CC3(F)F)c2)c1 (single isomer, unassigned) [Example 175] | 1.7
COc1cncc(-n2cc(-c3cc(C(=O)NC4CC4)c(F)cc3C)cn2)c1 [Example 25, N-cyclopropyl-2-fluoro-5-[1-(5-methoxypyridin-3-yl)-1H-pyrazol-4-yl]-4-methylbenzamide] | 3.7
COc1cncc(-n2cc(-c3cc(C(=O)NC4CC4)ccc3Cl)cn2)c1 [Example 27, 4-chloro-N-cyclopropyl-3-[1-(5-methoxypyridin-3-yl)-1H-pyrazol-4-yl]benzamide] | 22
COc1cncc(-n2cc(-c3cc(C(=O)NC4CC4)ccc3C)cn2)c1 [Example 28, N-cyclopropyl-3-[1-(5-methoxy-pyridin-3-yl)-1H-pyrazol-4-yl]-4-methylbenzamide] | 15
O=C(NC1CC1)c1ccc(Cl)c(-c2cnn(-c3cccnc3)c2)c1 [Example 31, 4-chloro-N-cyclopropyl-3-[1-(pyridin-3-yl)-1H-pyrazol-4-yl]benzamide] | 94
Cc1ccc(C(=O)NC2CC2)cc1-c1cn(-c2cccnc2)cn1 [Example 35, N-cyclopropyl-4-methyl-3-[1-(pyridin-3-yl)-1H-imidazol-4-yl] benzamide] | 39
Cc1ccc(C(=O)NC2CC2)cc1-c1cnn(-c2cncc(N(C)C)c2)c1 [Example 44, N-cyclopropyl-3-{1-[5-(dimethylamino)pyridin-3-yl]-1H-pyrazol-4-yl}-4-methylbenzamide] | 6.4
Cc1ccc(C(=O)NC2CC2)cc1-c1cnn(-c2cncc(S(C)(=O)=O)c2)c1 [Example 46, N-cyclopropyl-3-[1-(5-methanesulfonylpyridin-3-yl)-1H-pyrazol-4-yl]-4-methylbenzamide] | 190
Cc1ccc(C(=O)NC2CC2)cc1-c1cnn(-c2cncc(C(=O)O)c2)c1 [Example 48, 5-{4-[5-(cyclopropylcarbamoyl)-2-methylphenyl]-1H-pyrazol-1-yl} pyridine-3-carboxylic acid] | 33
Cc1ccc(C(=O)NC2CC2)cc1-c1cnn(-c2cncc(C(=O)N(C)C)c2)c1 [Example 49, 5-{4-[5-(cyclopropylcarbamoyl)-2-methylphenyl]-1H-pyrazol-1-yl}-N,N-dimethylpyridine-3-carboxamide] | 390
Cc1ccc(C(=O)NC2CC2)cc1-c1cnn(-c2cncc(CC(=O)O)c2)c1 [Example 51, 2-(5-{4-[5-(cyclopropylcarbamoyl)-2-methylphenyl]-1H-pyrazol-1-yl}pyridin-3-yl)acetic acid] | 240
Cc1ccc(C(=O)NC2CC2)cc1-c1cnn(-c2cncc(NCCOC(C)(C)C)c2)c1 [Example 55, 3-[1-(5-{[2-(tert-butoxy)ethyl]amino}pyridin-3-yl)-1H-pyrazol-4-yl]-N-cyclopropyl-4-methylbenzamide] | 9.7
Cc1ccc(C(=O)NC2CC2)cc1-c1cnn(-c2cncc(NCC3COCCO3)c2)c1 (stereo not shown) [Example 57, N-cyclopropyl-3-(1-{5-[(1,4-dioxan-2-ylmethyl)amino]pyridin-3-yl}-1H-pyrazol-4-yl)-4-methylbenzamide] | 4.5
Cc1ccc(C(=O)NC2CC2)cc1-c1cnn(-c2cncc(NCCN3CCOC3=O)c2)c1 [Example 58, N-cyclopropyl-4-methyl-3-[1-(5-{[2-(2-oxo-1,3-oxazolidin-3-yl)ethyl]amino}pyridin-3-yl)-1H-pyrazol-4-yl]benzamide] | 3.8
Cc1ccc(C(=O)NC2CC2)cc1-c1cnn(-c2cncc(NCC3CCCO3)c2)c1 (stereo not shown) [Example 59, N-cyclopropyl-4-methyl-3-(1-{5-[(oxolan-2-ylmethyl)amino]pyridin-3-yl}-1H-pyrazol-4-yl)benzamide] | 9.1
COCCNc1cncc(-n2cc(-c3cc(C(=O)NC4CC4)ccc3C)cn2)c1 [Example 60, N-cyclopropyl-3-(1-{5-[(2-methoxyethyl)amino]pyridin-3-yl}-1H-pyrazol-4-yl)-4-methylbenzamide] | 8.4
Cc1ccc(C(=O)NC2CC2)cc1-c1cnn(-c2cncc(N[C@@H]3C[C@H]4CC[C@@H]3O4)c2)c1 [Example 66, N-cyclopropyl-4-methyl-3-[1-(5-{[(1S,2R,4R)-7-oxabicyclo[2.2.1]heptan-2-yl]amino}pyridin-3-yl)-1H-pyrazol-4-yl]benzamide] | 3.9

Further compounds by falling IC50, results first:

IC50 [nM] | SMILES
570 | CC(=O)NC(C)(C)c1cncc(-n2cc(-c3cc(C(=O)NC4CC4)ccc3C)cn2)c1 [Example 50, N-cyclopropyl-3-{1-[5-(2-acetamidopropan-2-yl)pyridin-3-yl]-1H-pyrazol-4-yl}-4-methylbenzamide]
180 | CNCc1cncc(-n2cc(-c3cc(C(=O)NC4CC4)ccc3C)cn2)c1 [Example 39, N-cyclopropyl-4-methyl-3-(1-{5-[(methylamino)methyl]pyridin-3-yl}-1H-pyrazol-4-yl)benzamide]
57 | Cc1ccc(C(=O)NC2CC2)cc1-c1cnn(-c2cncc(C(F)(F)F)c2)c1 [Example 47, N-cyclopropyl-4-methyl-3-{1-[5-(trifluoromethyl)pyridin-3-yl]-1H-pyrazol-4-yl}benzamide]
56 | Cc1ccc(C(=O)NC2CC2)cc1-c1cnn(-c2cncc(CC#N)c2)c1 [Example 52, 3-{1-[5-(cyanomethyl)pyridin-3-yl]-1H-pyrazol-4-yl}-N-cyclopropyl-4-methylbenzamide]
41 | COc1cncc(-n2cnc(-c3cc(C(=O)NC4CC4)ccc3Cl)c2)c1 [Example 54, 4-chloro-N-cyclopropyl-3-[1-(5-methoxypyridin-3-yl)-1H-imidazol-4-yl]benzamide]
38 | Cc1ccc(C(=O)NC2CC2)cc1-c1cnn(-c2cccnc2)c1 [Example 34, N-cyclopropyl-4-methyl-3-[1-(pyridin-3-yl)-1H-pyrazol-4-yl] benzamide]
24 | Cc1ccc(C(=O)NC2CC2)cc1-c1cnn(-c2cncc(CO)c2)c1 [Example 43, N-cyclopropyl-3-{1-[5-(hydroxymethyl)pyridin-3-yl]-1H-pyrazol-4-yl}-4-methylbenzamide]
14 | O=C(NC1CC1)c1cc(-c2cnn(-c3cccnc3)c2)c(Cl)cc1F [Example 32, 4-chloro-N-cyclopropyl-2-fluoro-5-[1-(pyridin-3-yl)-1H-pyrazol-4-yl] benzamide]
10 | CCO[C@H]1COC[C@@H]1Nc1cncc(-n2cc(-c3cc(C(=O)NC4CC4)ccc3C)cn2)c1 [Example 56, N-cyclopropyl-3-[1-(5-{[(3S,4R)-4-ethoxyoxolan-3-yl]amino}pyridin-3-yl)-1H-pyrazol-4-yl]-4-methyl-benzamide]
8.9 | COc1cncc(-n2cc(-c3cc(C(=O)NC4CC4)c(F)cc3Cl)cn2)c1 [Example 26, 4-chloro-N-cyclopropyl-2-fluoro-5-[1-(5-methoxypyridin-3-yl)-1H-pyrazol-4-yl]benzamide]
8.8 | CCOc1cncc(-n2cc(-c3cc(C(=O)NC4CC4)ccc3C)cn2)c1 [Example 36, N-cyclopropyl-3-[1-(5-ethoxypyridin-3-yl)-1H-pyrazol-4-yl]-4-methyl-benzamide]
7.6 | COc1cncc(-n2cnc(-c3cc(C(=O)NC4CC4)ccc3C)c2)c1 [Example 53, N-cyclopropyl-3-[1-(5-methoxypyridin-3-yl)-1H-imidazol-4-yl]-4-methyl-benzamide]
7.4 | COc1cncc(-n2cnc(-c3cc(C(=O)NC4CC4)c(F)cc3Cl)c2)c1 [Example 33, 4-chloro-N-cyclopropyl-2-fluoro-5-[1-(5-methoxypyridin-3-yl)-1H-imidazol-4-yl]benzamide]
3.6 | Cc1ccc(C(=O)NC2CC2)cc1-c1cnn(-c2cncc(C3CC3)c2)c1 [Example 45, N-cyclopropyl-3-[1-(5-cyclopropyl-pyridin-3-yl)-1H-pyrazol-4-yl]-4-methylbenzamide]
2.3 | COC1CCC(Nc2cncc(-n3cc(-c4cc(C(=O)NC5CC5)ccc4C)cn3)c2)C1 (stereo not shown) [Example 65, N-cyclopropyl-3-(1-{5-[(3-methoxycyclopentyl)amino]pyridin-3-yl}-1H-pyrazol-4-yl)-4-methyl-benzamide]
1.9 | CC(=O)N1CCC(Nc2cncc(-n3cc(-c4cc(C(=O)NC5CC5)ccc4C)cn3)c2)CC1 [Example 63, 3-(1-{5-[(1-acetylpiperidin-4-yl)amino]pyridin-3-yl}-1H-pyrazol-4-yl)-N-cyclopropyl-4-methyl-benzamide]
1.5 | Cc1cc(F)c(C(=O)NC2CC2)cc1-c1cnn(-c2cncc(N[C@@H]3CCN(C)CC3(F)F)c2)c1 (single isomer, unassigned) [Example 176]
